This note sets out measurements from US20040259888A1, “Novel 4-aminofuropyrimidines and the use thereof” (priority 2001, published 2004).

As a reminder, the IC50 is the point on the concentration scale where inhibition reaches its midpoint. Usually melting point stands for the temperature, or range, at which the solid turns liquid.

Counter-ions that a name gives are not always drawn.

Data set [1] has as its target human recombinant adenosine kinase (Homo sapiens, UniProt P55263). Nature of the data set: Inhibition of human recombinant adenosine kinase. The class given is biochemical. The note with it: 14C-adenosine substrate, 0.5 mM ATP, 37° C., 20 min; read-out: Adenosine kinase inhibition (in vitro): IC50. The procedure: 1. Inhibition of Human Recombinant Adenosine Kinase
The test is carried out on 96-well filter plates (DE81 from Millipore, DEAE cellulose, 0.65 μm). The test buffer contains 50 mM tris/HCl pH 8.0, 10 mM DTT and 1 mM MgCl2; immediately prior to the start of the test, ATP is added in a concentration of 0.5 mM. The substrate used is ^14C-adenosine, diluted 1:30 in cold adenosine; the final concentration of the cold adenosine is 4×10^−6 M; the amount of ^14C-adenosine is chosen such that, at a volume of 10 μl, an activity of 0.5 kBq (=30 000 decays per minute) is present per well of the filter plate. The substances to be tested are dissolved in DMSO in a concentration of 10^−2 M. Further dilutions are carried out using water.
When carrying out the test, initially 80 μl of buffer are initially charged into each well. The test substances, the substrate adenosine and finally human recombinant adenosine kinase (Mathews J. J. et al., Biochemistry (1998) 37, 15607-15620) in test buffer pH 7.4 are added successively, in each case in a volume of 10 μl. The adenosine kinase concentration is chosen such that at most 30% of the total amount of adenosine are converted. The plates are then incubated at 37° C. for 20 min. The reaction is then stopped by filtration with suction. The filters are washed in each case once with ice-cold wash buffer (15 mM Tris/HCl pH 8.5) and ethanol. The plate is dried at 37° C. (about 15 min). 50 μl of scintillation solution are then pipetted into each well, and the ^14C activity is determined in a MicroBeta counter.
The inhibition of the enzyme activity by the substances tested is determined after substration of the blank value (no added enzyme) in comparison to the uninhibited enzyme (100% value).

Chain of human recombinant adenosine kinase (P55263 1-345 isoform P55263-2): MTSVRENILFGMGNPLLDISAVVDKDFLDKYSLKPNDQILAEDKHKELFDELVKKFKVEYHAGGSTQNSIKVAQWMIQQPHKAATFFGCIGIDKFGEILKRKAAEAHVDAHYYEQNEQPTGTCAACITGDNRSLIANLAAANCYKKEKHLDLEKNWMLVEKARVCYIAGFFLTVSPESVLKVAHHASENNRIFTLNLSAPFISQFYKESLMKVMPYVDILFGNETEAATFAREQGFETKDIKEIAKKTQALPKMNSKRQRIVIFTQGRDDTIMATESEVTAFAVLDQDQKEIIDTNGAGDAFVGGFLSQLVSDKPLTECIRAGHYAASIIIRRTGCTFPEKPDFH

With `CN1CCN(c2ncnc3oc(-c4ccc(N)cc4)c(-c4ccc(F)cc4)c23)CC1` [Example 4, 4-[5-(4-Fluorophenyl)-4-(4-methyl-1-piperazinyl)furo[2,3-d]pyrimidin-6-yl]aniline], the melting point was 214 to 215 °C. The IC50 in data set [1] was 50 nM.

In turn, `CN1CCN(c2ncnc3oc(-c4ccc(N)nc4)c(-c4ccccc4)c23)CC1` [Example 8, 5-[4-(4-Methyl-1-piperazinyl)-5-phenylfuro[2,3-d]pyrimidin-6-yl]-2-pyridineamine] came in with a melting point of 229 to 231 °C. Further, the IC50 in data set [1] was found to be 80 nM.

Consider `CN(C)CC(=O)Nc1ccc(-c2oc3ncnc(N4CCOCC4)c3c2-c2ccc(F)cc2)cc1` [Example 35], for which the melting point was in the range of 228 to 235 °C. In addition, the half-maximal inhibitory concentration (IC50) in data set [1] was determined as 20 nM.

`CN1CCN(c2ncnc3oc(-c4ccc(NCCO)nc4)c(-c4ccccc4)c23)CC1` [Example 37] returned a melting point of 219 to 221 °C. Moreover, in data set [1], the half-inhibitory concentration (IC50) is 20 nM.

For `OC1CCN(c2ccc(-c3oc4ncnc(N5CCC(O)CC5)c4c3-c3ccc(F)cc3)cn2)CC1` [Example 198, 1-{5-[5-(4-Fluorophenyl)-4-(4-hydroxy-1-piperidinyl)furo[2,3-d]pyrimidin-6-yl]-2-pyridinyl}-4-piperidinol], in data set [1], the IC50 amounted to 20 nM.

`O=C(Nc1ccc(-c2oc3ncnc(N4CCC(O)CC4)c3c2-c2ccc(F)cc2)cc1)[C@@H]1CCCN1` [Example 201, N-{4-[5-Fluorophenyl)-4-(4-hydroxy-1-piperidinyl)furo[2.3-d]pyrimidin-6-yl]-phenyl}-L-prolinamide Hydrochloride]: in data set [1], the IC50 is 20 nM.

In the case of `CC(=O)N1CCN(c2ccc(-c3oc4ncnc(N5CCC(O)CC5)c4c3-c3ccc(F)cc3)cn2)CC1` [Example 255], the 50% inhibitory concentration (IC50) in data set [1] came out at 5 nM.

For `NC1CCN(c2ccc(-c3oc4ncnc(N5CCC(N)CC5)c4c3-c3ccc(F)cc3)cn2)CC1` [Example 270], the half-inhibitory concentration (IC50) in data set [1] came out at 30 nM.

On to `CCN1CCN(c2ccc(-c3oc4ncnc(N5CCN(CC)CC5)c4c3-c3ccc(F)cc3)cn2)CC1` [Example 326], for which, in data set [1], the IC50 turned out to be 15 nM.
